# *1 amine or outer side, *2 acyl side, *3 side chain or, on linkers, in order; H or OH if unused. Where a SMILES comes first, the peptide text is derived from it. Bridges are numbered along the chain shown (N, C = ends). [ ]: non-standard residue; d: D form. The star is where a group is joined. X25 = O=C([C@H](Cc1ccc(C(F)(F)F)cc1)N(CCC(F)(F)F)[*:1])[*:2]; hPhe(3-Cl-4-CF3) = N[C@@H](CCc1ccc(C(F)(F)F)c(Cl)c1)C(=O)O; NPrPhe(4-Me) = CCCN[C@@H](Cc1ccc(C)cc1)C(=O)O; NMeGly(cPent) = CN[C@H](C(=O)O)C1CCCC1; Aze(3S-Me) = C[C@H]1CN[C@@H]1C(=O)O; NMeD = CN[C@@H](CC(=O)O)C(=O)O; NMeL = CN[C@@H](CC(C)C)C(=O)O; Morpholide = C1CN(*)CCO1; NMeA = CN[C@@H](C)C(=O)O; Ac5c = NC1(C(=O)O)CCCC1; Sar = CNCC(=O)O
# Tests used:
# [1] = target: GDP-bound NRAS wild-type protein (Homo sapiens, UniProt P01111); test: Binding to NRAS by surface plasmon resonance (SPR), KD and KD ratio to KRAS
# GDP-bound NRAS wild-type protein, sequence (P01111 whole entry): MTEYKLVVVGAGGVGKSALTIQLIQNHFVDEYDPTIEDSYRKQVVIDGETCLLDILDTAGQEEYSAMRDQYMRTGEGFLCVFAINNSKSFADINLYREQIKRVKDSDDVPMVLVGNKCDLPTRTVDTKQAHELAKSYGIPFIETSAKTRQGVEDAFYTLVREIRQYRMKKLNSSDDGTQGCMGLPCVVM
# How it was run: (§1)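 GDP-loaded biotinylated Avi-tag RAS proteins (E. coli-expressed) captured on a Biotin CAPture chip at ~100–300 RU; single-cycle kinetics at 30°C, 100 µL/min, 75 s injections of rising compound concentrations. HBS pH 7.4 running buffer with 1 mM DTT, 10 mM MgCl2, 10 µM GDP, 4% DMSO. KD from 1:1 binding fit.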
# HRAS wild-type protein = HRAS wild-type protein (Homo sapiens, UniProt P01112); test: Binding to HRAS by surface plasmon resonance (SPR), KD and KD ratio to KRAS
# HRAS wild-type protein, sequence (P01112 whole entry): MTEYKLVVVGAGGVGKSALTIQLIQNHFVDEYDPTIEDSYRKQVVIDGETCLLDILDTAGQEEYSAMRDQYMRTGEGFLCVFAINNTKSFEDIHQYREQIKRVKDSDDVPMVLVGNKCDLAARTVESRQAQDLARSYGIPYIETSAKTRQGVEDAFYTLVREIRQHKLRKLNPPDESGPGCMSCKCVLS
# How it was run: as §1
# [2] = tested on: human lung cancer strain NCI-H441; assay type: cell-based
# How it was run: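 Readout: […] after the ATP-based reagent. Compound: serial dilutions in dimethyl sulfoxide.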
# [3] = ratio of KD for GDP-bound NRAS wild-type protein to KD for KRAS
# [4] = ratio of KD for HRAS wild-type protein to KD for KRAS
# [5] = ratio of the KD value with respect to GDP-bound NRAS wild-type protein to the KD value with respect to KRAS
# [6] = ratio of the KD value with respect to HRAS wild-type protein to the KD value with respect to KRAS
# [7] = ratio of KD value for GDP-bound NRAS wild-type protein to KD value for KRAS (SPR)
# [8] = ratio of KD value for HRAS wild-type protein to KD value for KRAS (SPR)
Compound,"NRAS /KRAS [1, 3]",HRAS /KRAS (HRAS wild-type protein; [4]),IC50 [2] [nM],"NRAS /KRAS [1, 5]",HRAS /KRAS (HRAS wild-type protein; [6]),"NRAS /KRAS [1, 7]",HRAS /KRAS (HRAS wild-type protein; [8])
CC[C@H](C)[C@@H]1NC(=O)[C@H](CC(C)C)N(C)C(=O)C[C@@H](C(=O)N2CCOCC2)N(C)C(=O)[C@H](C2CCCC2)N(C)C(=O)C2(CCCC2)NC(=O)[C@@H]2CCCN2C(=O)[C@H](CCc2ccc(C(F)(F)F)c(Cl)c2)NC(=O)CN(C)C(=O)[C@H](Cc2ccc(C(F)(F)F)cc2)N(CCC(F)(F)F)C(=O)CN(C)C(=O)CN(C)C1=O [PP0131] ([NMeL]I[Sar][Sar][X25][Sar][hPhe(3-Cl-4-CF3)]P[Ac5c][NMeGly(cPent)][NMeD]-Morpholide; lactam N-11),B (a compound having 3 or more and less than 10 is denoted as B),C (A compound having a KD ratio of 0.1 or more and less than 3 is denoted as C),11.1,,,,
CC[C@H](C)[C@@H]1NC(=O)[C@H](CC(C)C)N(C)C(=O)C[C@@H](C(=O)N(C)CC)N(C)C(=O)[C@H](C2CCCC2)N(C)C(=O)C2(CC(C)(C)C2)NC(=O)[C@@H]2C[C@H](C)CN2C(=O)[C@H](CCc2ccc(C(F)(F)F)c(OC)c2)NC(=O)CN(C)C(=O)[C@H](Cc2ccc(C)cc2)N2CC/C=C\C[C@@H](C2=O)N(C)C(=O)CN(C)C1=O [PP1906],,,10.8,A (a compound having 10 or more and less than 20 is denoted as A),A (a compound having 10 or more and less than 20 is denoted as A),,
CCO[C@@H]1C[C@H]2C(=O)NC3(CCC3)C(=O)N(C)[C@@H](C3CCCC3)C(=O)N(C)[C@H](C(=O)N(C)C)CC(=O)N(C)[C@@H](Cc3cccc(C)c3)C(=O)N[C@@H]([C@@H](C)CC)C(=O)N(C)CC(=O)N(C)[C@H]3CCCCCN(C3=O)[C@@H](Cc3ccc(C(F)(F)F)cc3)C(=O)N(C)CC(=O)N[C@@H](CCc3cc(F)c(C(F)(F)F)c(F)c3)C(=O)N2C1 [PP0942],B (a compound having 3 or more and less than 10 is denoted as B),B (a compound having 3 or more and less than 10 is denoted as B),66.1,,,,
CCCN1C(=O)[C@H](C2CCCC2)N(C)C(=O)C2(CCC2)NC(=O)[C@@H]2C[C@@H](OCC)CN2C(=O)[C@H](CCc2cc(F)c(C(F)(F)F)c(F)c2)NC(=O)CN(C)C(=O)[C@H](Cc2ccc(C(F)(F)F)cc2)N2CCCC[C@@H](C2=O)N(C)C(=O)CN(C)C(=O)[C@H]([C@@H](C)CC)NC(=O)[C@H](CC(C)C)N(C)C(=O)C[C@H]1C(=O)N1CCOCC1 [PP0649],,,30.2,C (A compound having a KD ratio of 0.1 or more and less than 3 is denoted as C),B (a compound having 3 or more and less than 10 is denoted as B),,
CC[C@H](C)[C@@H]1NC(=O)[C@H](COC)N(C)C(=O)C[C@@H](C(=O)N2CCOCC2)N(C)C(=O)[C@H](C2CCCC2)N(C)C(=O)C2(CCC2)NC(=O)[C@@H]2C[C@H](OC)CN2C(=O)[C@H](CCc2cc(F)c(C(F)(F)F)c(F)c2)NC(=O)CN(C)C(=O)[C@H](Cc2ccc(C(F)(F)F)cc2)N2CCCCC[C@@H](C2=O)N(C)C(=O)CN(C)C1=O [PP0836],B (a compound having 3 or more and less than 10 is denoted as B),B (a compound having 3 or more and less than 10 is denoted as B),360,,,,
CCO[C@@H]1C[C@H]2C(=O)NC3(CC(C)(C)C3)C(=O)N(C)[C@@H](C3CCCC3)C(=O)N(C)[C@H](C(=O)N(C)CC)CC(=O)N(C)[C@@H](CC)C(=O)N[C@@H]([C@@H](C)CC)C(=O)N(C)CC(=O)N(C)[C@H]3C/C=C\CCN(C3=O)[C@@H](Cc3ccc(C)cc3)C(=O)N(C)CC(=O)N[C@@H](CCc3cc(F)c(C(F)(F)F)c(F)c3)C(=O)N2C1 [PP1886],,,1.9,,,A (a compound having 10 or more and less than 20 is denoted as A),B (a compound having 3 or more and less than 10 is denoted as B)
CC[C@H](C)[C@@H]1NC(=O)[C@H](CC(C)C)N(C)C(=O)C[C@@H](C(=O)N2CCOCC2)N(C)C(=O)[C@H](C2CCCC2)N(C)C(=O)C2(CCCC2)NC(=O)[C@@H]2CC(=O)CN2C(=O)[C@H](CCc2cc(F)c(C(F)(F)F)c(F)c2)NC(=O)CN(C)C(=O)[C@H](Cc2ccc(C(F)(F)F)cc2)N2CCCCC[C@@H](C2=O)N(C)C(=O)CN(C)C1=O [PP0493],,,628,B (a compound having 3 or more and less than 10 is denoted as B),B (a compound having 3 or more and less than 10 is denoted as B),,
CCC[C@H]1C(=O)N[C@@H]([C@@H](C)CC)C(=O)N(C)CC(=O)N(C)[C@H]2C/C=C\CCN(C2=O)[C@@H](Cc2ccc(C)cc2)C(=O)N(C)CC(=O)N[C@@H](CCc2ccc(C(F)(F)F)c(Cl)c2)C(=O)N2C[C@H](CC)C[C@H]2C(=O)NC2(CC(C)(C)C2)C(=O)N(C)[C@@H](C2CCCC2)C(=O)N(C)[C@H](C(=O)N(C)C)CC(=O)N1C [PP2212],,,23.5,A (a compound having 10 or more and less than 20 is denoted as A),B (a compound having 3 or more and less than 10 is denoted as B),,
CC[C@H](C)[C@@H]1NC(=O)[C@H](CC)N(C)C(=O)C[C@@H](C(=O)N(C)C)N(C)C(=O)[C@H](C2CCCC2)N(C)C(=O)C2(CCCC2)N(C)C(=O)[C@@H]2CCCN2C(=O)[C@H](CCc2cc(F)c(C(F)(F)F)c(F)c2)NC(=O)CN(C)C(=O)[C@H](Cc2ccc(C)cc2)N2CC/C=C\C[C@@H](C2=O)N(C)C(=O)[C@@H]2CCCN2C1=O [PP1811],,,14.3,,,A (a compound having 10 or more and less than 20 is denoted as A),B (a compound having 3 or more and less than 10 is denoted as B)
CCO[C@@H]1C[C@H]2C(=O)NC3(CCC3)C(=O)N(C)[C@@H](C3CCCC3)C(=O)N(C)[C@H](C(=O)N(C)C)CC(=O)N(C)[C@@H](CC(F)F)C(=O)N[C@@H]([C@@H](C)CC)C(=O)N(C)CC(=O)N(C)[C@H]3C/C=C\CCN(C3=O)[C@@H](Cc3ccc(C(F)(F)F)cc3)C(=O)N(C)CC(=O)N[C@@H](CCc3cc(F)c(C(F)(F)F)c(F)c3)C(=O)N2C1 [PP1120],A (a compound having 10 or more and less than 20 is denoted as A),A (a compound having 10 or more and less than 20 is denoted as A),20.6,,,,
CCO[C@@H]1C[C@H]2C(=O)NC3(CCC3)C(=O)N(C)[C@@H](C3CCCC3)C(=O)N(C)[C@H](C(=O)N(C)C)CC(=O)N(C)[C@@H](CC)C(=O)N[C@@H]([C@@H](C)CC)C(=O)N(C)CC(=O)N(C)[C@H]3CC(C)=CCN(C3=O)[C@@H](Cc3ccc(C(F)(F)F)cc3)C(=O)N(C)CC(=O)N[C@@H](CCc3cc(F)c(C(F)(F)F)c(F)c3)C(=O)N2C1 [PP1034],C (A compound having a KD ratio of 0.1 or more and less than 3 is denoted as C),C (A compound having a KD ratio of 0.1 or more and less than 3 is denoted as C),96.8,,,,
CCCN1C(=O)[C@@H]2[C@@H](C)CN2C(=O)[C@H](C)N(C)C(=O)[C@H]([C@@H](C)CC)NC(=O)[C@H](CC(C)C)N(C)C(=O)C[C@@H](C(=O)N2CCOCC2)N(C)C(=O)[C@H](C2CCCC2)N(C)C(=O)C2(CCCC2)NC(=O)[C@@H]2CCCN2C(=O)[C@H](CCc2ccc(C(F)(F)F)c(Cl)c2)NC(=O)CN(C)C(=O)[C@@H]1Cc1ccc(C)cc1 [PP0138] ([NMeL]I[NMeA][Aze(3S-Me)][NPrPhe(4-Me)][Sar][hPhe(3-Cl-4-CF3)]P[Ac5c][NMeGly(cPent)][NMeD]-Morpholide; lactam N-11),C (A compound having a KD ratio of 0.1 or more and less than 3 is denoted as C),C (A compound having a KD ratio of 0.1 or more and less than 3 is denoted as C),20.6,,,,
CCO[C@@H]1C[C@H]2C(=O)NC3(CCC3)C(=O)N(C)[C@@H](C3CCCC3)C(=O)N(C)[C@H](C3CCCCC3)CC(=O)N(C)[C@@H](COC)C(=O)N[C@@H]([C@@H](C)CC)C(=O)N(C)CC(=O)N(C)[C@H]3C/C=C\CCN(C3=O)[C@@H](Cc3ccc(C(F)(F)F)cc3)C(=O)N(C)CC(=O)N[C@@H](CCc3cc(F)c(C(F)(F)F)c(F)c3)C(=O)N2C1 [PP1584],,,66.4,,,B (a compound having 3 or more and less than 10 is denoted as B),B (a compound having 3 or more and less than 10 is denoted as B)
CCC[C@H]1C(=O)N[C@@H]([C@@H](C)CC)C(=O)N(C2CC2)CC(=O)N(C)[C@H]2C/C=C\CCN(C2=O)[C@@H](CC2CCC(F)(F)CC2)C(=O)N(C)CC(=O)N[C@@H](CCc2ccc(C(F)(F)F)c(OC)c2)C(=O)N2C[C@H](OCC)C[C@H]2C(=O)N(C)C2(CCC2)C(=O)N(C)[C@@H](C2CCCC2)C(=O)N(C)[C@H](C(=O)N(C)C)CC(=O)N1C [PP2352],,,15.6,A (a compound having 10 or more and less than 20 is denoted as A),A (a compound having 10 or more and less than 20 is denoted as A),,
CCO[C@@H]1C[C@H]2C(=O)NC3(CCC3)C(=O)N(C)[C@@H](C3CCCC3)C(=O)N(C)[C@H](C(=O)N(C)C)CC(=O)N(C)[C@@H](Cc3cccnc3)C(=O)N[C@@H]([C@@H](C)CC)C(=O)N(C)CC(=O)N(C)[C@H]3CCCCN(C3=O)[C@@H](Cc3ccc(C(F)(F)F)cc3)C(=O)N(C)CC(=O)N[C@@H](CCc3cc(F)c(C(F)(F)F)c(F)c3)C(=O)N2C1 [PP0703],,,26.7,C (A compound having a KD ratio of 0.1 or more and less than 3 is denoted as C),B (a compound having 3 or more and less than 10 is denoted as B),,
